Source: patent US8383622B2 (priority 2007, dated 2013)

Assays:
[1] = molecular target: Mouse 11β-HSD1 (Mus musculus, UniProt P50172); assay: Evaluation of compound against mouse 11β-HSD1 (HTRF assay, 11-dehydrocorticosterone substrate); type: biochemical; details: 11-dehydrocorticosterone 2 μM, 37° C. 2 hours
Experimental: Evaluation Method of 11β-HSD1 Inhibitor (Evaluation of Compound Against Mouse 11β-HSD1)
(§1) After preincubating an inhibitor in a reaction solution consisting of 50 mM sodium phosphate buffer (pH 7.5), bovine serum albumin (1 mg/mL), NADPH (0.42 mg/mL), glucose-6-phosphate (1.26 mg/mL), glucose-6-phosphate dehydrogenase, and an enzyme at room temperature for 30 minutes, 11-dehydrocorticosterone (2 μM) was added as a substrate (total amount 10 μL). After reacting at 37° C. for 2 hours, an XL-665-labeled cortisol solution (5 μL), and a Cryptate-labeled anti-cortisol antibody solution (5 μL) were added. The reaction was performed at room temperature for 2 hours, and fluorescence intensity (HTRF method) was measured.
A corticosterone concentration was calculated from a standard curve prepared using a known concentration of corticosterone for each assay.
Taking a concentration of corticosterone generated in the absence of the inhibitor as a control value, 50% inhibitory concentration (IC50 value) of the inhibitor against 11β-HSD1 was calculated from an inhibition curve plotting inhibition rate against the control value at each concentration of the inhibitor.

[2] = molecular target: Human 11β-HSD1 (Homo sapiens, UniProt P28845); assay: Evaluation of compound against human 11β-HSD1 (HTRF cortisol assay, cortisone substrate); type: biochemical; details: cortisone 5 μM, 37° C. 2 hours
Experimental: Evaluation Method of […] Inhibitor (Evaluation of Compound Against Human 11β-HSD1)
as §1, with “dehydrogenase” for “dehydrogenase,”, “30), (Inutes, cortisone (5” for “30 minutes, 11-dehydrocorticosterone (2”, “measured. A cortisol concentration was calculated from a standard curve prepared using a known concentration of cortisol for each assay.” for “measured.”
Taking a concentration of cortisol generated in the absence of the inhibitor as a control value, 50% inhibitory concentration (IC50 value) of the inhibitor against 11β-HSD1 was calculated from an inhibition curve plotting inhibition rate against the control value at each concentration of an inhibitor.

[3] = log k′ (degree of lipophilic character) by gradient HPLC; type: physicochemical; details: XTerra MS C18 column; acetonitrile/pH6.8 buffer gradient 5:95-95:5/20 min
Experimental: As to each compound, the measurement results of NMR or log k′ were disclosed.
log k′ is a value which means degree of the lipophilic character, and is calculated by the following formula. log k′=log(tR−t0)/t0 • tR: retention time of compound under gradient condition • t0: retention time of standard material not retained in column
XTerra MS C18 5 μm, 2.1×100 mm column (made by Waters) was used for measurement. The elution was a straight line inclination of acetonitrile/pH6.8 buffer (5:95˜95:5/20 min) at flow velocity 0.25 mL/min.

Sequence of Mouse 11β-HSD1 (P50172 whole entry): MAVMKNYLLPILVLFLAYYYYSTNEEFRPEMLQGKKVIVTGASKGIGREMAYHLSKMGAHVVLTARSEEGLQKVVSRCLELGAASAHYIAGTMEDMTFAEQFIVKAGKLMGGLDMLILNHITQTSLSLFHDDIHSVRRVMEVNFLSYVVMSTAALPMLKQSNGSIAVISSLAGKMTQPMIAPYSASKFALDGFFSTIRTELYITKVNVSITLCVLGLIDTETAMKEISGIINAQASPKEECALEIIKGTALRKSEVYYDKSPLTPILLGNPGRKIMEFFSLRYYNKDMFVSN
Sequence of Human 11β-HSD1 (P28845 whole entry): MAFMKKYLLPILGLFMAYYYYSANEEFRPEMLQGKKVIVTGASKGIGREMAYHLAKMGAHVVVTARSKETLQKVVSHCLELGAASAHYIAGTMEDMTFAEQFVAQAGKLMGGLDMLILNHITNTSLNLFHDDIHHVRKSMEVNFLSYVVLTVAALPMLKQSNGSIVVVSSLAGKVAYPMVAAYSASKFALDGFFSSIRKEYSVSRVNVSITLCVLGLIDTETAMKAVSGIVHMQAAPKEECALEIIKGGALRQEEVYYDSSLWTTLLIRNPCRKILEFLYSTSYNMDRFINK

| IC50 [1] [nM] | IC50 [2] [nM] | SMILES | log k′ [3] |
| --- | --- | --- | --- |
| 0.41 | 3.4 | CC(C)COc1c(C(=O)N[C@H]2C3CC4CC2C[C@](OC(N)=O)(C4)C3)cnn1/C=C/C(C)(C)C#N [Compound I-7] |  |
| 1.7 | 11 | CC(C)COc1c(C(=O)N[C@H]2C3CC4CC2C[C@](OC(N)=O)(C4)C3)cnn1/C=C/C(C)(C)NS(C)(=O)=O [Compound I-9] |  |
| 1 | 1.2 | CC(C)COc1c(C(=O)N[C@H]2C3CC4CC2C[C@](O)(C4)C3)cnn1/C=C/C(C)(C)NC(=O)CCC1CCCC1 [Compound I-36] |  |
| 0.21 | 1.4 | CC(C)COc1c(C(=O)N[C@H]2C3CC4CC2C[C@](CO)(C4)C3)cnn1/C=C/C(C)(C)C(N)=O [Compound I-63] |  |
|  |  | CC(=O)NCC(C)(C)/C=C/n1ncc(C(=O)N[C@H]2C3CC4CC2C[C@](OC(N)=O)(C4)C3)c1OCC(C)C [Compound I-68] | 0.85 |
|  |  | CCC(=O)NC(C)(C)/C=C/n1ncc(C(=O)N[C@H]2C3CCCC2C[C@@H](CO)C3)c1OCC(C)C [Compound I-69] | 0.866 |
|  |  | CCC(=O)NC(C)(C)/C=C/n1ncc(C(=O)N[C@H]2C3CCCC2C[C@@H](COC(N)=O)C3)c1OCC(C)C [Compound I-70] | 0.882 |
|  |  | CCNC(=O)C(C)(C)/C=C/n1ncc(C(=O)N[C@H]2C3CC4CC2C[C@](OC(N)=O)(C4)C3)c1OCC(C)C [Compound I-71] | 0.868 |
|  |  | CC(C)COc1c(C(=O)NC2C3CC4CC2CC(OC(N)=O)(C4)C3)cnn1/C=C/C(C)(C)CO (centres unmarked) [Compound I-73] | 0.876 |
|  |  | CC(C)COc1c(C(=O)N[C@H]2C3CC4CC2C[C@](COC(N)=O)(C4)C3)cnn1/C=C/C(C)(C)CO [Compound I-74] | 0.896 |
|  |  | CC(C)COc1c(C(=O)N[C@H]2C3CC4CC2C[C@](OC(N)=O)(C4)C3)cnn1/C=C/C(C)(C)NC(=O)COc1ccccc1 [Compound I-75] | 0.95 |
|  |  | CC(C)COc1c(C(=O)N[C@H]2C3CC4CC2C[C@](OC(N)=O)(C4)C3)cnn1/C=C/C(C)(C)NC(=O)CCc1ccccc1 [Compound I-76] | 0.946 |
| 0.23 | 0.62 | CC(C)COc1c(C(=O)NC2C3CC4CC2CC(O)(C4)C3)cnn1C=CC(C)(C)NC(=O)COCc1ccccc1 (centres unmarked) [Compound I-77] |  |
|  |  | CC(C)COc1c(C(=O)N[C@H]2C3CC4CC2C[C@](O)(C4)C3)cnn1/C=C/C(C)(C)NC(=O)C1CCOCC1 [Compound I-79] | 0.818 |
|  |  | CC(C)COc1c(C(=O)N[C@H]2C3CC4CC2C[C@](OC(N)=O)(C4)C3)cnn1/C=C/C(C)(C)NC(=O)C1CCOCC1 [Compound I-80] | 0.852 |
|  |  | CC(C)COc1c(C(=O)N[C@H]2C3CC4CC2C[C@](O)(C4)C3)cnn1/C=C/C(C)(C)NC(=O)N1CCOCC1 [Compound I-81] | 0.813 |
|  |  | CC(C)COc1c(C(=O)NC2C3CC4(O)CC2CC(O)(C3)C4)cnn1/C=C/C(C)(C)C(N)=O (centres unmarked) [Compound I-82] | 0.682 |
|  |  | CC(C)COc1c(C(=O)N[C@H]2C3CC4CC2C[C@](COC(N)=O)(C4)C3)cnn1/C=C/C(C)(C)C(=O)NC(N)=O [Compound I-83] | 0.87 |
| 4.9 | 154 | CC(=O)NC(C)(C)/C=C/n1ncc(C(=O)N[C@H]2C3CC4CC2C[C@](CO)(C4)C3)c1CC(C)C [Compound I-121] |  |
| 3 | 88.1 | COC(=O)NC(C)(C)/C=C/n1ncc(C(=O)N[C@H]2C3CC4CC2C[C@](OC(N)=O)(C4)C3)c1-c1ccccc1 [Compound I-127] |  |
| 5.5 | 62.4 | COC(=O)NC(C)(C)/C=C/n1ncc(C(=O)N[C@H]2C3CC4CC2C[C@](F)(C4)C3)c1-c1ccccc1 [Compound I-128] |  |
| 0.52 | 75.6 | COC(=O)NC(C)(C)/C=C/n1ncc(C(=O)N[C@H]2C3CC4CC2C[C@](O)(C4)C3)c1-n1cccn1 [Compound I-133] |  |
| 0.37 | 64.4 | COC(=O)NC(C)(C)/C=C/n1ncc(C(=O)NC2C3CC4CC2CC(COC(N)=O)(C4)C3)c1-n1cccn1 (centres unmarked) [Compound I-139] |  |

| SMILES | IC50 [1] [nM] | IC50 [2] [nM] | log k′ [3] |
| --- | --- | --- | --- |
| CC(=O)NC(C)(C)/C=C/n1ncc(C(=O)N[C@H]2C3CC4CC2C[C@](CO)(C4)C3)c1-c1ccccc1 [Compound I-131] | 1.4 | 20.8 |  |
